{"source": "patent US6555547B1", "about": "“Method for treating a patient with neoplasia by treatment with a vinca alkaloid derivative” (Cell Pathways, Inc., priority 2000, dated 2003)", "key": {"[1]": {"target": "T1, cGMP binding sites of GST-cGB-PDE5 fusion protein (Homo sapiens, UniProt O76074)", "T1 construct": "made in house; host or cells: E. coli BL21 (DE3)", "T1 sequence (O76074 46-539 limits assumed)": "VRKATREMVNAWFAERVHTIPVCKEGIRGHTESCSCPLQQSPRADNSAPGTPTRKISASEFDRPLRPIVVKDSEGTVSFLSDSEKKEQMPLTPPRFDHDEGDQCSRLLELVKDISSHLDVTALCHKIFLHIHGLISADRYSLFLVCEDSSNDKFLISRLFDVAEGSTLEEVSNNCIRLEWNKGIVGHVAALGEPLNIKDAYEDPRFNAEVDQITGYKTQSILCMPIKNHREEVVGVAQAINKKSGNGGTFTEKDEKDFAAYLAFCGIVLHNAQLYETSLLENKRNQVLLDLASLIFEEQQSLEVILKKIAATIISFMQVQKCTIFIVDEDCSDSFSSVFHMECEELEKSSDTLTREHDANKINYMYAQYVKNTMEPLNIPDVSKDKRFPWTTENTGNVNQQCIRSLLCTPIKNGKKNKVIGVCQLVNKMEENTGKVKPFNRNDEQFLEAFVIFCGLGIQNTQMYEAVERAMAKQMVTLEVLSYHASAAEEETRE", "experiment": "cGMP binding assay", "details": "3H-cGMP 2 μM"}, "[2]": {"tested_on": "Calu-6 adenocarcinoma cell line", "experiment": "Cell growth, alone and in combination with vinca alkaloid", "type": "cell-based, human", "details": "for Lower concentration required on continuous exposure than 1-hour exposure for same effect: FIGS. 28-29, 32-33; for Effect when combined with vinca alkaloid: both cell lines (Calu-6, H460), 1-hour and continuous exposures", "experimental": "(§1) Exisulind and Compound I were analyzed using two human lung cancer cell lines; H460, a large cell carcinoma with a doubling time of 16 hours, and Calu-6, an adenocarcinoma with a doubling time of 21 hours. Exisulind and Compound I were analyzed alone and in combination with the vinca alkaloid, Navelbine™ vinorelbine. The cytotoxic agents were administered for 1 hour, while exisulind and Compound I were administered for either 1 hour or given as a continuous exposure.\n(§2) Cells were plated on day 0 and allowed to attach. On day 1, the cells were exposed to one of the cytotoxic agents dissolved in media pre-warmed to 37° C. and incubated at 37° C. for 1 hour. The cells were then washed twice and re-fed pre-warned media with or without either exisulind or Compound I and incubated for one hour at 37° C. After the one-hour incubation, the cells were washed twice, re-fed, and returned to the incubator; the continuous exposure cultures were not washed and re-fed. Appropriate controls were included for each condition. […] All data points were done in triplicate and the mean graphed as a percent of control growth.\n(§3) Exisulind and Compound I were first dissolved in DMSO and brought to the desired concentrations by slowly adding warm media to the drug-DMSO solution to prevent precipitation."}, "[3]": {"tested_on": "PKG activity in HCT116 colon cancer cells", "experiment": "PKG assay on lysates of drug-treated HCT116 cells", "type": "cell-based", "text": "To test the effect of cGMP-specific PDE inhibition on neoplasia containing the β-catenin mutation, HCT116 colon cancer cells were employed. HCT116 is known to contain the β-catenin mutation, but is known not to contain the APC mutation.\nThe same procedure is used to grow the HCT116 cells as is used in the SW480 procedure described above. In this experiment, only exisulind and controls were used."}, "[4]": {"experiment": "Side effects of exisulind in patients", "type": "in vivo", "text": "This effect is reversible, and liver enzymes return to normal levels when the administered dose of exisulind returns to the traditionally recommended level or when treatment is discontinued. The most serious side effects of vinca alkaloid derivatives, on the other hand, are myelosuppressions."}, "[5]": {"tested_on": "β-catenin and PKG in SW480 cells", "experiment": "Western blot of β-catenin and PKG in SW480 cells", "type": "cell-based, human", "details": "SW480, 48 hours", "experimental": "SW480 cells treated with exisulind as described previously are harvested from the microfuge tubes by rinsing once with ice-cold PBS. The cells are lysed by modified RIPA buffer for 15 minutes with agitation. The cell lysate is spun down in a cold room. The supernatants are transferred to fresh microcentrifuge tubes immediately after spinning. BioRad DC Protein Assay (Temecula, Calif.) is performed to determine the protein concentrations in samples. The samples are normalized for protein concentration, as described above.\n50 μg of each sample is loaded onto a 10% SDS gel. SDS-PAGE is performed, and the proteins then are transferred to a nitrocellulose membrane. The blotted nitrocellulose membrane is blocked in freshly prepared TBST containing 5% nonfat dry milk for one hour at room temperature with constant agitation.\nA goat-anti-PKG primary antibody is diluted to the recommended concentration/dilution in fresh TBST/5% nonfat dry milk. The nitrocellulose membrane is placed in the primary antibody solution and incubated one hour at room temperature with agitation. The nitrocellulose membrane is washed three times for ten minutes each with TBST. […]\nThis observation was made by culturing SW480 cells with either 200, 400 or 600 μM exisulind or vehicle (0.1% DMSO). […] Immuno-reactive protein can be detected by Western blot. […]"}, "[6]": {"tested_on": "Peak B from SW480, HTB-26, and LnCAP", "experiment": "Peak B cGMP PDE activity from SW480, HTB-26 and LnCAP (FPLC)", "type": "biochemical", "details": "100 nM; Peak B from SW480, HTB-26, LnCAP", "experimental": "The novel Peak B was also isolated from two other neoplastic cell lines, a breast cancer cell line, HTB-26, and a prostate cancer cell line, LnCAP, by a procedure similar to the one above used to isolate it from SW480. The protocol was modified in several respects. To provide even greater reproducibility to allow comparison of different cell lines, a Pharmacia AKTA FPLC was used to control sample loading and elution on an 18 mL DEAE TrisAcryl M column. SW840 was run by this same procedure multiple times to provide a reference of Peak B. 200-400 million cells of SW480 were used for the profiles. 70 million cells of LnCAP were used for a profile (see FIGS. 22 and 23), and in a separate experiment 32 million cells of HTB-26 were used for a profile (see FIGS. 20 and 21). After re-suspending cells in homogenization buffer, samples were manually homogenized. FPLC buffer A was 8 mM TRIS-acetate, 5 mM Mg acetate, 0.1 mM EDTA, pH 7.5 and buffer B was 8 mM TRIS-acetate, 5 mM Mg acetate, 0.1 mM EDTA, 1 M Na acetate, pH 7.5. Supernatants were loaded onto the column at 1 mL per minute, followed by a wash with 60 mL buffer A at 1 mL per minute. A gradient was run from 0-15% buffer B in 60 mL, 15-50% buffer B in 60 mL, and 50-100% buffer B in 16 mL. During the gradient 1.5 mL fractions were collected."}, "[7]": {"details": "in vivo"}, "[8]": {"tested_on": "H460 large cell carcinoma cell line", "experiment": "Cell growth, alone and in combination with vinca alkaloid", "type": "cell-based, human", "experimental": "as §1, §2, §3"}, "[9]": {"tested_on": "LNCaP prostate tumor cell line", "experiment": "Histone-associated DNA fragmentation in prostate tumor cells", "type": "cell-based", "details": "50 μM, up to 4 days, free base", "experimental": "The androgen-sensitive prostate tumor cell line, LNCaP (from ATCC (Rockville, Md.)) was propagated under standard conditions using […] medium containing 5% fetal calve serum and 2 mM glutamine. Primary prostate epithelial cell cultures (PrEC) derived from normal prostate (from Clonetics Inc. (San Diego, Calif.)) were grown under the same conditions as the tumor cell line except a serum-free medium optimized for the growth of such cultures was used (Clonetics Inc). For the experiments, LNCaP or PrEC cells were seeded in 96 well plates at a density of 10,000 cells per well. […] After various drug treatment times (4, 24, 48, 72, or 99 hours) the cells were lysed and processed for measurement of histone-associated DNA as an indicator of apoptotic cell death (see, Piazza et al., Cancer Research 57: 2452-2459, 1997)."}, "[10]": {"experiment": "Acute toxicity study in rats", "type": "in vivo"}, "[11]": {"experiment": "Toxicity study in dogs (capsules)", "type": "in vivo"}, "[12]": {"tested_on": "PrEC primary prostate epithelial cell cultures", "experiment": "Histone-associated DNA fragmentation in normal prostate epithelial cells", "type": "cell-based", "details": "50 μM, up to 4 days", "experimental": "The androgen-sensitive prostate tumor cell line, LNCaP (from ATCC (Rockville, Md.)) was propagated under standard conditions using […] medium containing 5% fetal calve serum and 2 mM glutamine. Primary prostate epithelial cell cultures (PrEC) derived from normal prostate (from Clonetics Inc. (San Diego, Calif.)) were grown under the same conditions as the tumor cell line except a serum-free medium optimized for the growth of such cultures was used (Clonetics Inc). For the experiments, LNCaP or PrEC cells were seeded in 96 well plates at a density of 10,000 cells per well. After 24 hours, the cells were treated with either vehicle (0.1% DMSO) or 50 μM Compound I (free base) solubilized in DMSO. After various drug treatment times (4, 24, 48, 72, or 99 hours) the cells were lysed and processed for measurement of histone-associated DNA as an indicator of apoptotic cell death (see, Piazza et al., Cancer Research 57: 2452-2459, 1997)."}, "[13]": {"experiment": "Seven-day dose-range finding study in rats", "type": "in vivo"}, "[14]": {"details": "rat, in vivo, 2000 mg/kg/day"}}, "note": "Entries after “also recorded” stand apart in the source; their conditions may differ.", "data": [{"smiles": "CC1=C(CC(=O)O)c2cc(F)ccc2/C1=C\\c1ccc(S(C)(=O)=O)cc1", "note": "[Exisulind, 5-fluoro-2-methyl-1-(p-methylsulfonylbenzylidene)-3-indenylacetic acid]", "values": [{"measurement": "Competition with cGMP for binding of GST-cGB-PDE5", "setting": "[1]", "result": "do not bind to the cGMP binding sites of PDE5"}, {"measurement": "Lower concentration required on continuous exposure than 1-hour exposure for same effect", "setting": "[2]", "result": "~10", "unit": "fold"}, {"measurement": "activity at 400 µg/mL", "setting": "[2]; Homo sapiens, Calu-6, 1 h, Calu-6, 1-hour exposure, 400 μg/ml, read-out: % of control growth", "result": 54, "unit": "%"}, {"measurement": "Effect when combined with vinca alkaloid", "setting": "[2]", "result": "additive cytotoxic effect"}, {"measurement": "PKG activation relative to control", "setting": "[3]", "result": "yielded PKG that was phosphorylated to a greater extent than the corresponding controls"}, {"measurement": "Side effects at recommended dose", "setting": "[4]; 300-600 mg/day", "result": "no significant side effects"}, {"measurement": "Side effects above recommended dose", "setting": "[4]; doses higher than the recommended therapeutic levels, reversible", "result": "can lead to elevated levels of liver enzymes"}, {"measurement": "β-catenin and PKG levels by Western blot", "setting": "[5]", "result": "causes the drop of β-catenin and the increase of PKG"}]}, {"smiles": "O=C(O)C1CCN(c2nc(NCc3ccc4c(c3)OCO4)c3cc(Cl)ccc3n2)CC1", "note": "[Compound E4021]", "values": [{"measurement": "Competition with cGMP for binding of GST-cGB-PDE5", "setting": "[1]", "result": "do not bind to the cGMP binding sites of PDE5"}, {"measurement": "Sensitivity of Peak B cGMP PDE activity", "setting": "[6]", "result": "resistant"}]}, {"smiles": "CC1=C(CC(=O)NCc2ccccc2)c2cc(F)ccc2/C1=C\\c1ccncc1.Cl", "note": "[Compound I, (Z)-5-fluoro-2-methyl-(4-pyridylidene)-3-(N-benzyl)indenylacetamide hydrochloride]", "values": [{"measurement": "Safety", "setting": "[7]", "result": "safe in animal studies and in a single, escalating dose human study"}, {"measurement": "Strength in inhibiting cell growth relative to exisulind", "setting": "[2]; Calu-6", "result": "80-100 fold"}, {"measurement": "% of control growth", "setting": "[2]; Calu-6, 1-hour exposure, 5 mcg/ml", "result": 47, "unit": "%"}, {"measurement": "Lower concentration required on continuous exposure than 1-hour exposure for same effect", "setting": "[2]", "result": 25, "unit": "fold"}, {"measurement": "Effect when combined with vinca alkaloid", "setting": "[2]", "result": "additive cytotoxic effect"}, {"measurement": "Strength in inhibiting cell growth relative to exisulind", "setting": "[8]", "result": "80-100 fold"}, {"measurement": "Histone-associated fragmented DNA", "setting": "[9]", "result": "A significant increase in fragmented DNA was detected after 24 hours of treatment; also recorded: time-dependent increase in the amount of histone-associated fragmented DNA"}, {"measurement": "intraperitoneal LD50", "setting": "[10]", "result": "greater than 1000 mg/kg"}, {"measurement": "oral LD50", "setting": "[10]", "result": "> 4000", "unit": "mg/kg"}, {"measurement": "Acute toxicity, single intraperitoneal dose", "setting": "[10]; intraperitoneal, 1000 mg/kg", "result": "reduced body weight gain, with mesenteric adhesions seen in some animals"}, {"measurement": "Acute toxicity, single oral dose", "setting": "[10]; oral, 4000 mg/kg", "result": "body weight gains were slightly reduced"}, {"measurement": "Acute toxicity, single oral doses", "setting": "[10]; oral, up to and including 2000 mg/kg", "result": "no observable signs of toxicity"}, {"measurement": "oral LD50", "setting": "[11]", "result": "greater than 1000 mg/kg"}, {"measurement": "Toxicity, single dose in capsules", "setting": "[11]; 1000 mg/kg", "result": "no signs of toxicity"}, {"measurement": "Drug-related effects, single dose and seven consecutive doses", "setting": "[11]; 1000 mg/kg/day", "result": "At no time in either dosing phase were any obvious signs of drug-related effects observed"}, {"measurement": "DNA fragmentation", "setting": "[12]", "result": "did not affect DNA fragmentation for up to 4 days of treatment"}, {"measurement": "Seven-day toxicity findings", "setting": "[13]; 50 mg/kg/day", "result": "no observable signs of toxicity"}, {"measurement": "Seven-day toxicity findings", "setting": "[13]; 500 mg/kg/day", "result": "treatment-related effects were limited to an increase in absolute and relative liver weights in female rats"}, {"measurement": "Seven-day toxicity findings", "setting": "[13]; 2000 mg/kg/day", "result": "labored breathing and/or abnormal respiratory sounds, decreased weights gains and food consumption in male rats, and increased liver weights in female rats"}, {"measurement": "Seven-day hematology, blood chemistry, microscopic pathology", "setting": "[13]; any dose level", "result": "No hematological or blood chemistry changes nor any microscopic pathology changes"}, {"measurement": "28-day histopathological evaluation", "setting": "[14]", "result": "traces of follicular cell hypertrophy, increased numbers of mitotic figures (suggestive of possible cell proliferation) in the thyroid gland and mild centrilobular hypertrophy in the liver"}, {"measurement": "28-day liver weights", "setting": "[14]", "result": "statistically significant increase in liver weights"}, {"measurement": "28-day thyroid weights", "setting": "[14]", "result": "statistically significant increases in thyroid weights"}]}]}
